# Patent publication US9920030B2 (priority 2006, dated 2018)
# Where two headings read alike, the source gives them in different places.
# What was measured:
# Assay type in all cases: in vivo
# [1] = test system: Plasmopara vilicola (the causal agent of grape downy mildew); test: Test A: grape downy mildew, test suspension sprayed on grape seedlings after inoculation, visual disease rating; conditions: for pest or weed control at 40 ppm: Plasmopara, 144 h, read-out: Percent Disease Control, Test A
# In short: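 Compounds dissolved in acetone (3% of final volume), suspended in 50/50 acetone/water with 250 ppm Trem 014; 200 ppm to run-off equals 500 g/ha. Seedlings inoculated, held saturated at 20 °C 24 h, then sprayed; 5 days at 20 °C, 24 h saturated, then visual rating, 0–100% control versus untreated.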
# [2] = test system: Phytophthora infestans (the causal agent of tomato late blight); test: whole plant or invertebrate; conditions: for pest or weed control at 40 ppm: Phytophthora infestans, 96 h, read-out: Percent Disease Control, Test C
# [3] = test system: Phytophthora infestans (the causal agent of tomato late blight); test: whole plant or invertebrate; conditions: for pest or weed control at 40 ppm: Phytophthora infestans, 144 h, read-out: Percent Disease Control, Test B
# [4] = compounds without asterisk (application rate not given), 100 = 100% disease control, 0 = no control relative to the controls
SMILES,"Percent Disease Control, Test A [1, 4] [%]","Percent Disease Control, Test C [2, 4] [%]","Percent Disease Control, Test B [3, 4] [%]",further results
Cc1cc(C(F)(F)F)nn1CC(=O)N1CCC(c2nc(C3=NOC(CCBr)C3)cs2)CC1 (stereo not drawn) [Compound 57],99,99,100,–
Cc1cc(C(F)(F)F)nn1CC(=O)N1CCC(c2nc(-c3nc4ccccc4[nH]3)cs2)CC1 [Compound 58],0,0,99,–
Cc1cc(C(F)(F)F)nn1CC(=O)N1CCC(c2nc(-c3cc(-c4ccccc4F)on3)cs2)CC1 [Compound 59],–,–,–,"Percent Disease Control, Test A ([1]; * tested at 40 ppm): 97%; Percent Disease Control, Test C ([2]; * tested at 40 ppm): 91%; Percent Disease Control, Test B ([3]; * tested at 40 ppm): 100%"
Cc1cc(C(F)(F)F)nn1CC(=O)N1CCC(c2nc(-c3cc(-c4ccccc4C(F)(F)F)on3)cs2)CC1 [Compound 60],100,94,95,–
Cc1cc(C(F)(F)F)nn1CC(=O)N1CCC(c2nc(-c3ccc4ccccc4c3)cs2)CC1 [Compound 61],80,0,77,–
Cc1cc(C(F)(F)F)nn1CC(=O)N1CCC(c2nc(-c3ccccc3)cs2)CC1 [Compound 62],73,26,73,–
Cc1cc(C(F)(F)F)nn1CC(=O)N1CCC(c2nc(-c3cc(-c4ccc(F)cc4F)on3)cs2)CC1 [Compound 64],90,88,99,–
Cc1cc(C(F)(F)F)nn1CC(=O)N1CCC(c2nc(C3CC(=O)N(c4ccccc4)C3)cs2)CC1 (stereo not drawn) [Compound 65],46,83,100,–
Cc1cc(C(F)(F)F)nn1CC(=O)N1CCC(c2nc(C3=NOC(C#N)C3)cs2)CC1 (stereo not drawn) [Compound 66],48,73,63,–
Cc1cc(C(F)(F)F)nn1CC(=O)N1CCC(c2nc(C3=NOC4(CCCC4)C3)cs2)CC1 [Compound 67],–,–,–,"Percent Disease Control, Test A ([1]; * tested at 40 ppm): 100%; Percent Disease Control, Test C ([2]; * tested at 40 ppm): 99%; Percent Disease Control, Test B ([3]; * tested at 40 ppm): 100%"
Cc1cc(C(F)(F)F)nn1CC(=O)N1CCC(c2nc(-c3nc(-c4ccccc4)no3)cs2)CC1 [Compound 68],96,88,95,–
Cc1cc(C(F)(F)F)nn1CC(=O)N1CCC(c2nc(-c3ccc(Oc4ccccc4)cc3)cs2)CC1 [Compound 72],72,52,100,–
Cc1cc(C(F)(F)F)nn1CC(=O)N1CCC(c2nc(-c3cccc4ccccc34)cs2)CC1 [Compound 73],27,0,40,–
Cc1cc(C(F)(F)F)nn1CC(=O)N1CCC(c2nc(-c3cccc(-c4ccccc4)c3)cs2)CC1 [Compound 74],50,0,40,–
Cc1cc(C(F)(F)F)nn1CC(=O)N1CCC(c2nc(-c3cccc(Oc4ccccc4)c3)cs2)CC1 [Compound 75],72,0,24,–
Cc1cc(C(F)(F)F)nn1CC(=O)N1CCC(c2nc(-c3ccn(-c4ccccc4)n3)cs2)CC1 [Compound 76],72,67,92,–
Cc1ccc(-n2cc(-c3csc(C4CCN(C(=O)Cn5nc(C(F)(F)F)cc5C)CC4)n3)nn2)cc1 [Compound 77],87,99,100,–
Cc1cc(C(F)(F)F)nn1CC(=O)N1CCC(c2nc(-c3ccnn3-c3ccccc3)cs2)CC1 [Compound 78],0,0,0,–
Cc1cc(C(F)(F)F)nn1CC(=O)N1CCC(c2nc(C3=NO[C@@H](c4ccccc4F)C3)cs2)CC1 [Compound 79],100,66,100,–
COC1ON=C(c2csc(C3CCN(C(=O)Cn4nc(C(F)(F)F)cc4C)CC3)n2)CC1c1ccccc1 (stereo not drawn) [Compound 81],93,77,92,–

SMILES,"Percent Disease Control, Test A [1, 4] [%]","Percent Disease Control, Test C [2, 4] [%]","Percent Disease Control, Test B [3, 4] [%]",further results
Cc1cc(C(F)(F)F)nn1CC(=O)N1CCC(c2nc(-c3nn(-c4ccccc4)c(=O)[nH]3)cs2)CC1 [Compound 82],0,26,88,–
Cc1cc(C(F)(F)F)nn1CC(=O)N1CCC(c2nc(-c3ccc(-c4ccccc4)o3)cs2)CC1 [Compound 83],46,0,92,–
Cc1cc(C(F)(F)F)nn1CC(=O)N1CCC(c2nc(-c3csc(-c4ccccc4)n3)cs2)CC1 [Compound 84],67,0,33,–
Cc1cc(C(F)(F)F)nn1CC(=O)N1CCC(c2nc(-c3ccc(-c4ccccc4)s3)cs2)CC1 [Compound 85],85,0,70,–
Cc1cc(C(F)(F)F)nn1CC(=O)N1CCC(c2nc(-c3cc(-c4ccc(Cl)cc4Cl)no3)cs2)CC1 [Compound 86],83,14,79,–
Cc1cc(C(F)(F)F)nn1CC(=O)N1CCC(c2nc(-c3cc(-c4ccc(Cl)c(Cl)c4)no3)cs2)CC1 [Compound 87],76,0,44,–
Cc1cc(C(F)(F)F)nn1CC(=O)N1CCC(c2nc(C3=NOC(c4ccc5ccccc5c4)C3)cs2)CC1 (stereo not drawn) [Compound 88],–,–,–,"Percent Disease Control, Test A ([1]; * tested at 40 ppm): 99%; Percent Disease Control, Test C ([2]; * tested at 40 ppm): 99%; Percent Disease Control, Test B ([3]; * tested at 40 ppm): 100%"
Cc1cc(C(F)(F)F)nn1CC(=O)N1CCC(c2nc(C3=NOC(c4ccc(C(C)(C)C)cc4)C3)cs2)CC1 (stereo not drawn) [Compound 91],–,–,–,"Percent Disease Control, Test A ([1]; * tested at 40 ppm): 99%; Percent Disease Control, Test C ([2]; * tested at 40 ppm): 91%; Percent Disease Control, Test B ([3]; * tested at 40 ppm): 100%"
Cc1cc(C(F)(F)F)nn1CC(=O)N1CCC(c2nc(C3=NCC(c4ccccc4)N3)cs2)CC1 (stereo not drawn) [Compound 92],–,–,–,"Percent Disease Control, Test A ([1]; * tested at 40 ppm): 13%; Percent Disease Control, Test C ([2]; * tested at 40 ppm): 9%; Percent Disease Control, Test B ([3]; * tested at 40 ppm): 33%"
Cc1cc(C(F)(F)F)nn1CC(=O)N1CCC(c2nc(C3=NOC(c4ccc(F)cc4)C3)cs2)CC1 (stereo not drawn) [Compound 96],–,–,–,"Percent Disease Control, Test A ([1]; * tested at 40 ppm): 100%; Percent Disease Control, Test C ([2]; * tested at 40 ppm): 99%; Percent Disease Control, Test B ([3]; * tested at 40 ppm): 100%"
Cc1cc(C(F)(F)F)nn1CC(=O)N1CCC(c2nc(C3=NOC(c4ccc(C(F)(F)F)cc4)C3)cs2)CC1 (stereo not drawn) [Compound 97],–,–,–,"Percent Disease Control, Test A ([1]; * tested at 40 ppm): 99%; Percent Disease Control, Test C ([2]; * tested at 40 ppm): 95%; Percent Disease Control, Test B ([3]; * tested at 40 ppm): 100%"
"Cc1cc(C(F)(F)F)nn1CC(=O)N1CCC(c2nc(C3=NOC(c4ccccn4)C3)cs2)CC1 (stereo not drawn) [Compound 98, 1-[4-[4-(4,5-dihydro-5-(2-pyridinyl)-3-isoxazolyl)-2-thiazolyl]-1-piperidinyl]-2-[5-methyl-3-(trifluoromethyl)-1H-pyrazol-1-yl]ethanone]",–,–,–,pest or weed control at 40 ppm ([1]; * tested at 40 ppm): 77%; pest or weed control at 40 ppm [2]: 99%; pest or weed control at 40 ppm [3]: 100%
Cc1cc(C(F)(F)F)nn1CC(=O)N1CCC(c2nc(C3=NC4CCCCC4N3)cs2)CC1 (stereo not drawn) [Compound 99],31,0,33,–
Cc1cc(C(F)(F)F)nn1CC(=O)N1CCC(c2nc(C3=NOC(c4ccccc4)(C(C)C)C3)cs2)CC1 (stereo not drawn) [Compound 100],–,–,–,"Percent Disease Control, Test A ([1]; * tested at 40 ppm): 100%; Percent Disease Control, Test C ([2]; * tested at 40 ppm): 99%; Percent Disease Control, Test B ([3]; * tested at 40 ppm): 100%"
CCCC1(c2ccccc2)CC(c2csc(C3CCN(C(=O)Cn4nc(C(F)(F)F)cc4C)CC3)n2)=NO1 (stereo not drawn) [Compound 101],–,–,–,"Percent Disease Control, Test A ([1]; * tested at 40 ppm): 100%; Percent Disease Control, Test C ([2]; * tested at 40 ppm): 99%; Percent Disease Control, Test B ([3]; * tested at 40 ppm): 100%"
"Cc1cc(C(F)(F)F)nn1CC(=O)N1CCC(c2nc(C3=NOC4(CCSc5ccccc54)C3)cs2)CC1 (stereo not drawn) [Compound 102, 1-[4-[4-(2,3-dihydrospiro[4H-1-benzothiopyran-4,5′(4′H)-isoxazol]-3′-yl)-2-thiazolyl]-1-piperidinyl]-2-[5-methyl-3-(trifluoromethyl)-1H-pyrazol-1-yl]ethanone]",–,–,–,pest or weed control at 40 ppm ([1]; * tested at 40 ppm): 100%; pest or weed control at 40 ppm [2]: 99%; pest or weed control at 40 ppm [3]: 100%
Cc1cc(C(F)(F)F)nn1CC(=O)N1CCC(c2nc(C3=NOC(c4ccccc4)(C4CC4)C3)cs2)CC1 (stereo not drawn) [Compound 103],–,–,–,"Percent Disease Control, Test A ([1]; * tested at 40 ppm): 100%; Percent Disease Control, Test C ([2]; * tested at 40 ppm): 99%; Percent Disease Control, Test B ([3]; * tested at 40 ppm): 100%"
Cc1cc(C(F)(F)F)nn1CC(=O)N1CCC(c2nc(C3=NOC4(CCC(c5ccccc5)CC4)C3)cs2)CC1 (stereo not drawn) [Compound 104],100,99,100,–
CCC1(c2ccccc2)CC(c2csc(C3CCN(C(=O)Cn4nc(C(F)(F)F)cc4C)CC3)n2)=NO1 (stereo not drawn) [Compound 105],–,–,–,"Percent Disease Control, Test A ([1]; * tested at 40 ppm): 100%; Percent Disease Control, Test C ([2]; * tested at 40 ppm): 99%; Percent Disease Control, Test B ([3]; * tested at 40 ppm): 100%"
